Melting point and IC50 data for 13 compounds are collected here from patent publication US8658686B2, “Pyrazole compounds having therapeutic effect on multiple myeloma” (Nissan Chemical Industries, Ltd., priority 2010, dated 2014).

One data set deals with RPMI8226 cells. The data set can be described thus: Cell proliferation assay (WST assay, Cell Counting Kit-8), myeloma cell strain RPMI8226. The following applies: 4 days of incubation, concentration yielding 50% inhibition of cell proliferation. The class given is cell-based. As to the method: The CO2 concentration (%) in a CO2 incubator is expressed by the ratio of CO2 in the atmosphere in vol %.
Myeloma cell strain RPMI8226 (DS Pharma Biomedical Co., Ltd.) was incubated in liquid culture in a CO2 incubator (5% CO2) in RPMI1640 medium containing 10% (v/v) fetal calf serum. The resulting cells were suspended in RPMI640 medium(GIBCO) containing 10% (v/v) fetal calf serum and plated in 96-well flat-bottomed microplates (Corning Incorporated) in 100 μl/mL ([…]) per well. Furtheremore, each of the compounds prepared in Synthetic Examples was dissolved in dimethylsulfoxide and added at 0.1% (v/v) to final concentrations of 0.1 to 10 μg/mL. As the negative control, dimethyl sulfoxide was added at 0.1% (v/v).
After 4 days of incubation at 37° C. in liquid culture in a CO2 incubator (5% CO2), the viable cells were counted by the WST assay. A 10-μl aliquot of Cell Counting Kit-8 reagent solution (Dojindo Molecular Technologies, Inc.) was added to each well and incubated in a CO2 incubator (5% CO2) for 4 hours for color reaction, and light absorbance was measured at 450 nm by using a microplate reader. As the cell growth inhibitory activities in the presence of the test compounds relative to that in the absence of them (negative control), the concentrations (IC50) yielding 50% inhibition of cell proliferation were calculated.

The mark [1] stands for this setting: Homo sapiens, RPMI-8226, 96 h, read-out: IC50.

The structures appear in SMILES notation. Converted amounts (≈) assume the structure as drawn. Read-outs that look alike come from different tables or passages of the source.

The term melting point denotes the temperature of the solid-liquid transition. Broadly, the IC50 is the midpoint of a concentration-inhibition curve. Compound `CCCCCCc1ccc(-c2c(C#N)nn(C(C)(C)Cc3ccc(C)cc3)c2O)cc1` [Compound No. 4-86, 4-(4-Hexylphenyl)-5-hydroxy-1-(2-methyl-1-(p-tolyl)propan-2-yl)-1H-pyrazole-3-carbonitrile] yielded a melting point of 140 to 142 °C. Further, the IC50 in the data set on RPMI8226 cells (setting [1]) was found to be 3.3 µg/mL (≈ 7.94 µM).

In turn, `CCCCCCc1ccc(-c2cnn(C(C)(C)Cc3ccc(C)cc3)c2O)cc1` [Compound No. 4-90, 4-(4-Hexylphenyl)-1-(2-methyl-1-(p-tolyl)propan-2-yl)-1H-pyrazol-5-ol] registered a melting point of 149 to 151 °C. In addition, the IC50 in the data set on RPMI8226 cells (setting [1]) amounted to 5.5 µg/mL (≈ 14.1 µM).

As to `COc1c(C)c(-c2ccccc2)nn1C(C)(C)c1ccccc1` [Compound No. 3-14, 5-methoxy-4-methyl-3-phenyl-1-(2-phenylpropan-2-yl)-1H-pyrazole], the IC50 with RPMI8226 cells (setting [1]) is 7.9 µg/mL (≈ 25.8 µM).

For `CC(C)c1nn(C(C)(C)Cc2ccccc2)c(O)c1C(=O)c1ccccc1` [Compound No. 4-71, (5-hydroxy-3-isopropyl-1-(2-methyl-1-phenylpropan-2-yl)-1H-pyrazol-4-yl)(phenyl)methanone], the IC50 in the data set on RPMI8226 cells (setting [1]) was 3.2 µg/mL (≈ 8.83 µM).

Regarding `CC(C)C1=NN(C(C)(C)Cc2ccccc2)C(=O)C1Br` (stereo not shown) [Compound No. 3-47, 4-bromo-3-isopropyl-1-(2-methyl-1-phenylpropan-2-yl)-1H-pyrazol-5(4H)-one], in the data set on RPMI8226 cells (setting [1]), the IC50 was 3.3 µg/mL (≈ 9.78 µM).

Regarding `COC(=O)CC1=NN(C(C)(C)c2ccccc2)C(=O)C1` [Compound No. 4-01, methyl 2-(5-oxo-1-(2-phenylpropan-2-yl)-4,5-dihydro-1H-pyrazol-3-yl)acetate], the IC50 with RPMI8226 cells (setting [1]) was 11.1 µg/mL (≈ 40.5 µM).

As for `CCCCCCc1ccc(-c2c(C(C)C)nn(C(C)(C)Cc3ccc(C)cc3)c2O)cc1` [Compound No. 3-07, 4-(4-hexylphenyl)-3-isopropyl-1-(2-methyl-1-p-tolylpropan-2-yl)-1H-pyrazol-5-ol], the half-inhibitory concentration (IC50) was 5.3 µg/mL (≈ 12.3 µM) in the data set with RPMI8226 cells and 8.8 µg/mL (≈ 20.3 µM) in the data set on RPMI8226 cells (setting [1]).

Consider `CCOC(=O)c1c(C(C)C)nn(C(C)(C)c2ccccc2)c1O` [Compound No. 4-27, ethyl 5-hydroxy-3-isopropyl-1-(2-phenylpropan-2-yl)-1H-pyrazole-4-carboxylate], for which the IC50 in the data set with RPMI8226 cells (setting [1]) came out at 5.5 µg/mL (≈ 17.4 µM).

As for `CON=C(C)c1c(C(C)C)nn(C(C)(C)Cc2ccccc2)c1O` [Compound No. 4-89, 1-(5-Hydroxy-3-isopropyl-1-(2-methyl-1-phenylpropan-2-yl)-1H-pyrazol-4-yl)ethanone O-methyl oxime], the IC50 in the data set with RPMI8226 cells (setting [1]) is 4.7 µg/mL (≈ 14.3 µM).

On to `COc1cc(-c2ccccc2)nn1C(C)(C)c1ccccc1` [Compound No. 3-13, 5-methoxy-3-phenyl-1-(2-phenylpropan-2-yl)-1H-pyrazole], for which the IC50 with RPMI8226 cells (setting [1]) amounted to 5.4 µg/mL (≈ 18.5 µM).

As to `CC(C)C1=NN(C(C)(C)Cc2ccc(Br)cc2)C(=O)C1` [Compound No. 3-12, 1-(1-(4-bromophenyl)-2-methylpropan-2-yl)-3-isopropyl-1H-pyrazol-5(4H)-one], in the data set with RPMI8226 cells (setting [1]), the IC50 was found to be 5.4 µg/mL (≈ 16 µM).

On to `COC(=O)c1ccc(-c2c(C(C)C)nn(C(C)(C)Cc3ccccc3)c2O)cc1` [Compound No. 4-23, methyl 4-(5-hydroxy-3-isopropyl-1-(2-methyl-1-phenylpropan-2-yl)-1H-pyrazol-4-yl)benzoate], for which, in the data set with RPMI8226 cells (setting [1]), the IC50 came to 6.3 µg/mL (≈ 16.1 µM).

With `CC(C)(Cc1ccccc1)N1N=C(c2ccccc2)CC1=O` [Compound No. 3-16, 1-(2-methyl-1-phenylpropan-2-yl)-3-phenyl-1H-pyrazol-5(4H)-one], in the data set on RPMI8226 cells (setting [1]), the IC50 was 3.5 µg/mL (≈ 12 µM).
